Assay results: patent US20260055150A1, “GRAIL-1 PEPTIDE PRODUCTS AND METHODS” (REGENTS OF THE UNIVERSITY OF MICHIGAN, priority 2022, published 2026)
Several values for one entry are separate records, joined by “and”; a condition that tells them apart may be missing. Equal values may be shown once. Entries after “also recorded” stand apart in the source; their conditions may differ. Where no end group is shown, it is not given here.

Tests used:
DNAJA1 [1] = test: Peptide pull down assay with recombinant DNAJA1; assay type: binding; details: NHS activated Sepharose beads, Western blot
Description: Briefly, 1 mg of peptide was dissolved in 1 ml of coupling buffer (0.2 M NaHCO3, 0.5 M NaCl, pH 8.3). Peptides were conjugated to NHS-activated resin by incubating 100 μL NHS bead slurry with 200 μL peptide solution for 2 hours at room temperature (RT). Unbound sites were blocked with quenching buffer (0.5 M ethanolamine, 500 mM NaCl). Resin peptide conjugates were washed once with low pH (0.1 M acetate, 0.5 M NaCl, pH 5) and high pH buffer (0.1 M Tris HCl, pH 8.0) and equilibrated with lysis buffer 50 mM HEPES, 150 mM NaCl, 0.2% NP-40, protease inhibitor cocktail, pH 7.5. Purified HSP40 protein was procured from […] (cat #). Purified protein was diluted in lysis buffer. Approximately 40 nM protein was incubated with peptide coupled to NHS beads and incubated for 2 hours at RT. Unbound proteins were removed by centrifugation and beads were washed with washing buffer (50 mM HEPES, 300 mM NaCl, 0.2% NP-40, pH 7.5). Bound proteins were obtained by boiling beads with 1× Laemmli buffer. […] To confirm, thermal stability assays (TSA) were performed. TSA was carried out using QuantStudio™ 7 Flex Real-Time PCR System. […] The plates were covered with optical foil during the reaction in the thermal cycler. […] The Instrument was programmed in the melt curve mode with ROX reagent detection and Fast speed run. The reporter was selected as Rox and none for quencher. Each melt curve was programmed as follows: 25° C. for 15 sec, followed by increase in temperature at the speed of 0.03° C./s up to 95° C. and finally 95° C. for 15 sec. The raw data was exported to Protein Thermal Shift™ Software (Applied Biosystems) for analysis. Melting temperature was calculated using the melt curve. […] To further test functionality, an in vitro ATPase activity assay was performed using purified Hsp40 and Hsp70 proteins. […] Pep 1 was redesignated “Pep J”.

CpD cells = test: Clonogenic survival of mutant p53 driven CpD cells; details: for differential activity in reducing clonogenic survival of CpD cells: CpD versus CpA
Description: The effects of different siRNAs (e.g., GRAIL Iso1-1, GRAIL Iso1-2, TP53) on clonogenic survival of different BE (CpA, CpD) and EAC (Flo1, OE19, and OE33) cell lines were determined by normalizing the survival fraction of control siRNA-treated group as 1.
For this purpose, two BE cell lines were used, CpA (with wild type p53) and CpD (carrying mutant p53). […] In brief, 3000 cells in 100 μl of complete medium were plated per well in a 96-well plate 24 h prior to peptide treatments. Cells were then either treated with vehicle (dH2O) or serial dilutions of peptides. Two days following treatments MTT labelling reagent was added, and cells were allowed to form formazan crystals for 2 h. Following, 100 μl of solubilizing agent (10% SDS in 0.01M HCl) was added per well, and plates were incubated at 37° C. overnight. The optical density (OD) of the solubilized formazan was spectrophotometrically quantified using a plate reader at 570 nm with a reference at 650 nm. Data represent the mean (±standard error, SE) performed in quadruplicate, and percent cell viabilities are plotted in semi-logarithmic scale relative to water treated control.

[2] = test system: chaperone activity (Fluc-DM); test: Fluc-DM luciferase reporter of cellular chaperone activity; assay type: cell-based; details: 20 μM peptide, overnight
Description: As Frag J/J^m overexpression locks DNAJA1-Hsp70 complex, whether such interactions inhibit chaperone activity was tested. […] To understand the in vivo effects of the Frag J or different peptides in multiple cell lines including BE/EAC and p53 isogenic lines, cells were first transfected/co-transfected with Fluc-DM±Frag J constructs. Twenty-four hours post-transfection, cells were either subjected to luciferase assay or for peptide treatment studies, cells were treated with 20 μM concentrations of different peptides. After overnight incubation, cell lysates were prepared using lysis buffer provided in the luciferase assay kit in Promega luciferase assay system (cat. E1910) followed by standardized protocol as provided by the manufacturer. […] Such observation was confirmed by an in vitro chaperone activity assay using recombinant purified Hsp40-Hsp70 complex (FIG. 6D). In Fluc-DM study, loss of Fluc-DM levels following Frag J/J^m overexpression (FIG. 6E) was noted as shown using immunoblotting. Such effects were independent of p53 mutation status.

mutant p53-R175H = test: Immunoblotting of mutant p53 steady state levels in CpD cells; assay type: cell-based; details: CpD cells transfected with DDK-tagged p53R175H; peptides 20 mM for 6 h
Description: CpD cells overexpressing mutant p53 were transfected with DDK-tagged p53R175H mutant. Cells were then treated with indicated peptides ([…] for 6 h).
Consequently, the effect of all thirteen peptides on mutant p53 steady state levels was tested.

[3] = test system: EAC cells (Flo1, OE19, and OE33); test: Cell viability (MTT) of EAC cell lines; assay type: cell-based
OE19 = OE19 cells
claudin-1 = target: T1, claudin-1 (Homo sapiens, UniProt O95832); test: In vivo fluorescence imaging with RTS*-Cy5.5; set-up: species or system mouse; details: after intravenous administration
T1 construct: endogenous in cells; host or cells: colonic PDO implanted in mouse rectum
T1 sequence (O95832 1-211): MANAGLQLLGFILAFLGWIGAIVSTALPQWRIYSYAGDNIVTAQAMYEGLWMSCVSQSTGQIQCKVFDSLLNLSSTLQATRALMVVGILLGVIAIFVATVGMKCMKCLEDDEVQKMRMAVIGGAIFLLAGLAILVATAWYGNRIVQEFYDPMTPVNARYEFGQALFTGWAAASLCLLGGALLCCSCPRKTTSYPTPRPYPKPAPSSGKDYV
Description: (A) Photo of is shown of a flexible fiber-coupled side-view confocal endomicroscope. […] Confocal images show claudin-1 expression from (D) dysplasia and (E) normal colonic mucosa with subcellular resolution. Images were collected ˜1 hour post-injection of RTS*-Cy5.5. Crypt structures and individual cells can be identified. Key: crypt (arrow), tight junction (arrowhead), lumen (I), colonocyte (c), goblet cell (g), lamina propria (lp).
This instrument has a diameter of 4.2 mm, which is small enough to perform repetitive in vivo imaging in mouse colon. The focusing optics provide a spatial resolution of 1.2 μm. A rigid wide-field endoscope was used first to collect white light (WL) and NIR fluorescence (FL) images to identify the approximate location of the implanted PDOs. Landmarks defined by the clockwise location of and distance from the anus to the distal tip of the endoscope were used to approximately locate the implanted PDOs for collection of confocal images. Tumor size and volume were estimated using a calibrated gauge passed through the instrument channel of the rigid endoscope. […] Differences in the spatial pattern of target expression between dysplasia and surrounding normal mucosa for colonic PDOs can be seen (FIG. 18D,E).

DNAJA1 [4] = test: Thermal stability assay (TSA) with purified DNAJA1; assay type: binding; details: TAT-less peptides, 0-500 μM
Description: (§1) Briefly, 1 mg of peptide was dissolved in 1 ml of coupling buffer (0.2 M NaHCO3, 0.5 M NaCl, pH 8.3). Peptides were conjugated to NHS-activated resin by incubating 100 μL NHS bead slurry with 200 μL peptide solution for 2 hours at room temperature (RT). Unbound sites were blocked with quenching buffer (0.5 M ethanolamine, 500 mM NaCl). Resin peptide conjugates were washed once with low pH (0.1 M acetate, 0.5 M NaCl, pH 5) and high pH buffer (0.1 M Tris HCl, pH 8.0) and equilibrated with lysis buffer 50 mM HEPES, 150 mM NaCl, 0.2% NP-40, protease inhibitor cocktail, pH 7.5. Purified HSP40 protein was procured from Boston Scientific (cat #). Purified protein was diluted in lysis buffer. Approximately 40 nM protein was incubated with peptide coupled to NHS beads and incubated for 2 hours at RT. Unbound proteins were removed by centrifugation and beads were washed with washing buffer (50 mM HEPES, 300 mM NaCl, 0.2% NP-40, pH 7.5). Bound proteins were obtained by boiling beads with 1× Laemmli buffer. […] To confirm, thermal stability assays (TSA) were performed. TSA was carried out using QuantStudio™ 7 Flex Real-Time PCR System. […] The plates were covered with optical foil during the reaction in the thermal cycler. […] The Instrument was programmed in the melt curve mode with ROX reagent detection and Fast speed run. […] Melting temperature was calculated using the melt curve. […]

Hsp40-Hsp70 = Hsp40-Hsp70 (Homo sapiens, UniProt P31689); test: In vitro Hsp40-Hsp70 ATPase (chaperone) activity assay; assay type: biochemical; details: TAT-less peptides, dose-dependent
Description: as §1

CKVPPWR [Pep 28, TAT-less Pep 9]
interaction with purified DNAJA1 in peptide pull down (DNAJA1 [1]): bound effectively

GRKKRRQRRRPQCKVPPWR [Pep 9]
differential activity in reducing clonogenic survival of CpD cells (CpD cells): better differential activity
inhibition of chaperone activity (Fluc-DM) [2]: inhibition of chaperone activity; also recorded: capable of inhibiting chaperone activity
mutant p53-R175H protein levels (mutant p53-R175H): highly effective; also recorded: decrease in mutant p53 levels

GRKKRRQRRRPQPMCKVPPWRQ [Pep 5]
differential activity in reducing clonogenic survival of CpD cells (CpD cells): better differential activity
IC50 (CpD cells; read-out: IC50, clonogenic survival, CpD cells (mutant p53)): 11.2 µM and ~11 µM
effect on EAC cell lines [3]: relatively more resistant
inhibition of chaperone activity (Fluc-DM) [2]: inhibition of chaperone activity; also recorded: capable of inhibiting chaperone activity
mutant p53-R175H protein levels (mutant p53-R175H): highly effective; also recorded: decrease in mutant p53 levels
IC50 (OE19): 19.4 µM

RTS*-Cy5.5: Cy5.5-labeled peptide RTSPSSR, specific for claudin-1
fluorescence intensity from implanted colonic PDO (claudin-1): strong intensity

GRKKRRQRRRPQPMCKVPPWR [Pep 7]
mutant p53-R175H protein levels (mutant p53-R175H): decrease in mutant p53 levels

PMCKCDILKA [Pep 26, TAT-less Pep 1; Frag J amino acids 1-10]
interaction with purified DNAJA1 in peptide pull down (DNAJA1 [1]): bound effectively
thermal stability assay result with DNAJA1 (DNAJA1 [4]): showed the best result; also recorded: better interactor
inhibition of Hsp40-Hsp70 chaperoning (ATPase) activity (Hsp40-Hsp70): best efficacy; also recorded: most effect agent
